In general, GI50 refers to the concentration at which growth is held to half of that of the control.

The target in one assay is T1, RET (G810S/M918T) (Homo sapiens, UniProt P07949, G810S/M918T).
T1 construct: purchased Reaction Biology Corp
The assay is described as follows: Kinase panel inhibition, radiolabeled [γ-33P] ATP (Reaction Biology Corp). The class given is biochemical. The following applies: compound at 10 uM, ATP 1 µM.

The target in another assay is T2, RET(V804M) (Homo sapiens, UniProt P07949, V804M).
T2 construct: purchased Reaction Biology Corp
T2 sequence (P07949 29-1114 V804M): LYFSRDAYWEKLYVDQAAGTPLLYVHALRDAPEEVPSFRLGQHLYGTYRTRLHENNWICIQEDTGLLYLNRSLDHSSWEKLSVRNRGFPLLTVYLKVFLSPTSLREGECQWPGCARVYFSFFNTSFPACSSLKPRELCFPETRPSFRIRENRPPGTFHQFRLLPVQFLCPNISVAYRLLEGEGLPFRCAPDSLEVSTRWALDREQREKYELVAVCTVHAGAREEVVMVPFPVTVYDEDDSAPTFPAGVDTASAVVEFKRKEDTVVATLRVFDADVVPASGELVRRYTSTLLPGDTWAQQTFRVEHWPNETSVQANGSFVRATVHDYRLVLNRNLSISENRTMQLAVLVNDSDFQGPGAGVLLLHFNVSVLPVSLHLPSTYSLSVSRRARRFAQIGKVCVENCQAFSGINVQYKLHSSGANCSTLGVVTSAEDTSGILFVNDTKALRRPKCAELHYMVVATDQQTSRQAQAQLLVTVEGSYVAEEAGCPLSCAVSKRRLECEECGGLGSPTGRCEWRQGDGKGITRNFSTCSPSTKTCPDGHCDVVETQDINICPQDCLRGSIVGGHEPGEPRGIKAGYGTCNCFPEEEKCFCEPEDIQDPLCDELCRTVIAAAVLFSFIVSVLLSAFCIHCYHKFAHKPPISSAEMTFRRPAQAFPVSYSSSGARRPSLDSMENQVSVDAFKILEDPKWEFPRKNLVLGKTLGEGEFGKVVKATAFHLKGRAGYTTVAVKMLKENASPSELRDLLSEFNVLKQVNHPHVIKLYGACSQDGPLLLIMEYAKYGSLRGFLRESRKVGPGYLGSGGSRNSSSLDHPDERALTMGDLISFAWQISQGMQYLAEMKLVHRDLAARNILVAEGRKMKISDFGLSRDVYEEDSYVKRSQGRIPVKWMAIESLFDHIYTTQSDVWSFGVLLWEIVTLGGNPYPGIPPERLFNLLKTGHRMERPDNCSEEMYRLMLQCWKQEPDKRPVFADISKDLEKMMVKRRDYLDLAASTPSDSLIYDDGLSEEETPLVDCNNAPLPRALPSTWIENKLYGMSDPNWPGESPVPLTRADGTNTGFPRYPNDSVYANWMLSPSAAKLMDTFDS
The assay is described as above. The class given is biochemical. The following applies: compound at 0.1 uM; ATP 10 µM; read-out: % Enzyme Activity (relative to DMSO controls) V804M.

A further assay deals with T3, RET(V804M)-KIF5B (Homo sapiens, UniProt P07949, V804M).
T3 sequence (P07949 713-1114 V804M): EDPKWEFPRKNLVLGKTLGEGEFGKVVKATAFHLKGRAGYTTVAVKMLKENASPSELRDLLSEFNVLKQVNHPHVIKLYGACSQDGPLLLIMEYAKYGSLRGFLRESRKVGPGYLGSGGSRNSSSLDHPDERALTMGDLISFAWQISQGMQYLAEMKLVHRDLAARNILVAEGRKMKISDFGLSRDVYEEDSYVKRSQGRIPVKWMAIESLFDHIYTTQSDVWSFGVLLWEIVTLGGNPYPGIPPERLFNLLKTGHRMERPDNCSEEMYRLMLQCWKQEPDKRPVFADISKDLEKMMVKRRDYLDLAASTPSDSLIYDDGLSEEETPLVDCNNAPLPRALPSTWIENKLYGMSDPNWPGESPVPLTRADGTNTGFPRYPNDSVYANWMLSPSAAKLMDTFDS
T3 sequence (P33176 2-575 partner): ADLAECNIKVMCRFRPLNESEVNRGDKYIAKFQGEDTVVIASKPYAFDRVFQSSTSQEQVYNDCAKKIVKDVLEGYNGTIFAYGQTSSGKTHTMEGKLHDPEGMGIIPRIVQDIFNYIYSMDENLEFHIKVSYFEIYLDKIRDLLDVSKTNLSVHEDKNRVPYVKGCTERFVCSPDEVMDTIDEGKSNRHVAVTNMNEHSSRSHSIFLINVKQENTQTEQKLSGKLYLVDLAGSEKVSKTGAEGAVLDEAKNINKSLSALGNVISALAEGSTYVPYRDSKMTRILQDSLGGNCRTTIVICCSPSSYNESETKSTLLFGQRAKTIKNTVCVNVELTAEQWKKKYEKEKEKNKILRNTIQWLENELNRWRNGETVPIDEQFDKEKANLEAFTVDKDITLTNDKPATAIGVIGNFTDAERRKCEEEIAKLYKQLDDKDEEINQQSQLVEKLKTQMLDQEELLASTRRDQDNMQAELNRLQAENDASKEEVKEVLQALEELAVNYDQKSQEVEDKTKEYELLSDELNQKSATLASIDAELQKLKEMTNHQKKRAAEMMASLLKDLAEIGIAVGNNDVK
Described as above. The class given is biochemical. Conditions: compound at 0.1 uM; ATP 10 µM; read-out: % Enzyme Activity (relative to DMSO controls) RET (V804M )-KIF5B.

The next assay concerns A-549. The assay is described as follows: Cell proliferation inhibition, Cell Counting Kit-8, non-small cell lung cancer cell line. The class given is cell-based. The following applies: A-549 cell line; 72 hours incubation; test concentration not given. Background: Formazan colour is commonly taken as a measure of viable cells.
The target of a further assay is T4, RET(G810R) (Homo sapiens, UniProt P07949, G810R).
T4 construct: purchased Reaction Biology Corp
T4 sequence (P07949 29-1114 G810R): as the sequence (P07949 29-1114 V804M) above, with M776V, G782R counted along it
The assay is described as follows: Kinase panel inhibition, radiolabeled [γ-33P] ATP (Reaction Biology Corp). Type of assay: biochemical. Conditions: compound at 0.1 uM; ATP 10 µM; read-out: % Enzyme Activity (relative to DMSO controls) G810R.

The test system of another assay is BaF3-RET(V804M). The experiment in a line: Cell proliferation inhibition (GI50), Cell Counting Kit-8, Ba/F3 cell line. Conditions: Mus musculus, BaF3; 72 hours incubation; Cell Counting Kit-8; read-out: GI50 of BaF3-RET(V804M). Type of assay: cell-based, rodent. Here is the method:
To evaluate the inhibitory activity of the compounds represented by Formula I or Formula IV according to the present invention against RET mutation-driven cell growth in the Ba/F3 cell line and against cell growth in the non-small cell lung cancer cell line A-549, the following experiment was performed.
Each cell line was seeded in a 96-well plate at 1×10^4 cells/90 µL/well, and 10 µL/well of culture medium containing each example and intermediate compound or DMSO control at 9 concentrations (1 nM to 100 µM) prepared by 3-fold serial dilutions was added to achieve a final concentration of 0 to 100 µM, followed by incubation for 72 hours in a 37°C, 5% CO2 incubator. After 72 hours of incubation, the compound-treated plates were removed, and Cell Counting Kit-8 solution was added at 10 µL/well and mixed well. The plates were then incubated for 2 hours in a CO2 incubator at 37°C, and the absorbance was measured at 450 nm using a microplate reader.
In addition, the data were expressed as a percentage relative to vehicle-treated cells, and GI50 values were calculated using GraphPad Prism 8.0 (GraphPad Software Inc., San Diego), and the results are shown in Table 8 below. As a control compound, ponatinib, a known RET inhibitor, was treated to calculate the GI50 values.

The target in the next assay is T5, RET-CCDC6 (PTC1) (Homo sapiens, UniProt P07949).
T5 construct: purchased Reaction Biology Corp
T5 sequence (P07949 whole entry, looked up): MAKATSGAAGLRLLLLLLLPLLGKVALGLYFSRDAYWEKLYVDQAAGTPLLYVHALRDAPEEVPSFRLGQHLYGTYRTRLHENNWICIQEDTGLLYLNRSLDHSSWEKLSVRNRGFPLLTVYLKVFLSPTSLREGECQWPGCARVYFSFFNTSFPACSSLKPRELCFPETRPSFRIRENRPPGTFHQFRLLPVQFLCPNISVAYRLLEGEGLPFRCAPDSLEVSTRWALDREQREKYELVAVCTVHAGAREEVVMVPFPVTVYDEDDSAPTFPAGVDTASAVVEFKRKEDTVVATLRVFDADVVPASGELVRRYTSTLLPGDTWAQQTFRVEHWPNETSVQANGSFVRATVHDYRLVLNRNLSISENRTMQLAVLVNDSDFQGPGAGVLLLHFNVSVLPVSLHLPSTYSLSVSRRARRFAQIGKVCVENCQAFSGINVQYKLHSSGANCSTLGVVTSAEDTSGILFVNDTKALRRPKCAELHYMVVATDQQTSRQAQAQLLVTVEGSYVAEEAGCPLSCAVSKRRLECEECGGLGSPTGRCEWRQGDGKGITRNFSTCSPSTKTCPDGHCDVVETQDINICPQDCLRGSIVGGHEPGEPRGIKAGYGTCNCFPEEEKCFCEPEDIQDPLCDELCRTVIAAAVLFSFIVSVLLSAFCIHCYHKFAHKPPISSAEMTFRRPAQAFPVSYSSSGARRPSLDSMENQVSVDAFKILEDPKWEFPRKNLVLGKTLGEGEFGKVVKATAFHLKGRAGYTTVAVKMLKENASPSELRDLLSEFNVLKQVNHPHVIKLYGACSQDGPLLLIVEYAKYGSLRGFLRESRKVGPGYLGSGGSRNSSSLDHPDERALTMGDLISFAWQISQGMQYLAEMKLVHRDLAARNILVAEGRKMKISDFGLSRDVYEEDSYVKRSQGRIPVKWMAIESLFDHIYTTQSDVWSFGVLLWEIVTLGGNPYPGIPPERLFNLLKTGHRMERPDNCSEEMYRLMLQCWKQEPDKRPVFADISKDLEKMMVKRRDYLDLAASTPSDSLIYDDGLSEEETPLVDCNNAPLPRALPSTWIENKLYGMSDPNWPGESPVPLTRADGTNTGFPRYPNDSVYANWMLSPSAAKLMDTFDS
The experiment in a line: Kinase panel inhibition, radiolabeled [γ-33P] ATP (Reaction Biology Corp). Type of assay: biochemical. The following applies: compound at 10 uM, ATP 1 µM.

Molecules are shown by their SMILES. Read-outs that look alike come from different tables or passages of the source.

T1 sequence (P07949 29-1114 G810S/M918T): as the sequence (P07949 29-1114 V804M) above, with M776V, G782S, M890T counted along it

For the molecule `CCNc1cc(-c2ccc(N3CC[C@H](NC(=O)c4ccccc4F)C3)nc2)c2nccnc2c1` [Example 12, (S)-N-(1-(5-(7-(ethylamino)quinoxalin-5-yl)pyridin-2-yl)pyrrolidin-3-yl)-2-fluorobenzamide], the remaining activity at 10 µM on RET (G810S/M918T) (Data 1, read-out: % Enzyme Activity (relative to DMSO controls) RET (G810S/M918T) Data 1) was determined as 2.65%; on RET (G810S/M918T) (Data 2, read-out: % Enzyme Activity (relative to DMSO controls) RET (G810S/M918T) Data 2), 0.69%; at RET-CCDC6 (PTC1) (Data 1, read-out: % Enzyme Activity (relative to DMSO controls) RET-CCDC6 (PTC1) Data 1) it was 1.25%; on RET-CCDC6 (PTC1) (Data 2, read-out: % Enzyme Activity (relative to DMSO controls) RET-CCDC6 (PTC1) Data 2), 1.01%. Further, the remaining activity at 0.1 µM on RET(V804M) was found to be 2.27%; at RET(V804M)-KIF5B, 5.5%; on RET(G810R), 59.9%. Besides, the “Cell Proliferation (% of control)” value in the assay with A-549 worked out at 41.67%. The GI50 in the assay with BaF3-RET(V804M) was 1060 nM.

Source of the values: EP4796538A1, “NOVEL QUINOXALINE COMPOUNDS, MANUFACTURING METHOD THEREOF, AND USES THEREOF” (Gachon University of Industry-Academic Cooperation …, priority 2023, dated 2025).
